Reference: patent publication US20220306695A1, “COMPSTATIN ANALOGUES AND THEIR MEDICAL USES” (priority 2019, published 2022)
Where two headings read alike, the source gives them in different places. Starred links: 1 amine or outer side, 2 acyl side, 3 side chain; linkers in the order of their positions; H or OH if unused. Positions of bridges follow the written chain, without caps; N, C: chain ends. Non-standard residues stand in square brackets, D forms with d. Residues, ends and D or L forms follow the SMILES beside them. Groups on a side chain read outwards from the residue. *: point of attachment. C20 diacid = O=C(O)CCCCCCCCCCCCCCCCCCC(=O)*; Trp(1-Me) = Cn1cc(C[C@H](N)C(=O)O)c2ccccc21; Abu(4-yl) = O=C([C@H](CC[*:3])N[*:1])[*:2]; C18 diacid = O=C(O)CCCCCCCCCCCCCCCCC(=O)*; γGlu = O=C(O)[C@H](CCC(=O)[*:2])N[*:1]; NMeI = CC[C@H](C)[C@H](NC)C(=O)O; AEEA = NCCOCCOCC(=O)O; Sar = CNCC(=O)O

What was measured:
[1] = biological target: T1, Human C3 (Homo sapiens, UniProt P01024); assay: Affinity measurement by surface plasmon resonance (SPR) with immobilized C3; assay type: binding; settings: Table 7; immobilized C3, 25° C., pH 7.4
T1 construct: purchased Complement tech A1 13c (so in the source)
Experimental: Surface plasmon resonance (SPR) was used to characterize peptides with respect to their binding affinity (Kd) for C3. Human C3 (Complement tech cat #A1 13c) was immobilised on individual flow cells of CM5 sensor chips (GE Healthcare) using standard amine coupling to a density of approximately 3000 resonance units (RU) in a buffer consisting of 10 mM phosphate pH 7.4, 150 mM NaCl, 0.05% Tween20. For interaction experiments a multi-cycle experiment approach was used and performed using either a Biacore™ T200 or Biacore™ X100 instrument (GE Healthcare) at 25° C. Peptides were injected in increasing concentration series (5-8 different concentrations) for 60-120 s at a flow rate of 30 μL/min in a buffer consisting of 10 mM Tris buffer at pH 7.4, with 150 mM NaCl and 0.05% Tween20. This was followed by a dissociation period for up to 10 min. […] Sensorgrams were double-referenced (reference surface, blanks) prior to analysis of the kinetic profiles by globally fitting data to a 1:1 Langmuir binding model to obtain association and dissociation rates for calculation of the equilibrium dissociation constant Kd. Each peptide was tested at in at least 2 independent experiments.

[2] = tested on: classical complement pathway; assay: In vitro haemolysis assay (inhibition of classical complement pathway); assay type: cell-based, human
Summary of the method: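 Serially diluted compound (9 points) was preincubated 15 min at room temperature with diluted human serum, titrated per batch to give 70-90% maximal haemolysis, in Tris/casein buffer pH 7.4 with Mg2+/Ca2+. Antibody-sensitized sheep erythrocytes were then added for 30 min at 37° C, and the reaction was stopped with EDTA. Haemolysis was read at A405, with IC50 from 4PL fit.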

[3] = Table 3, human serum, sensitized sheep red blood cells, read-out: IC50[nM], in vitro analysis of inhibition of hemolysis

SMILES | Kd [1] [nM] | IC50 [2, 3] [nM] | IC50 ([2]; Table 4, valine 3 versus isoleucine 3 pairs, read-out: CP hemolysis IC50) [nM]
CC[C@H](C)[C@H](NC(C)=O)C(=O)N[C@H]1CSSC[C@@H](C(=O)N[C@@H](CO)C(N)=O)NC(=O)[C@H](CCCNC(=N)N)NC(=O)[C@H](Cc2c[nH]cn2)NC(=O)[C@H](CCC(=O)O)NC(=O)CNC(=O)[C@H](Cc2c[nH]c3ccccc23)NC(=O)[C@H](CC(=O)O)NC(=O)[C@H](CCC(N)=O)NC(=O)[C@H](Cc2c[nH]c3ccccc23)NC(=O)[C@H]([C@@H](C)CC)NC1=O [Compound 21] (Ac-ICIWQDWGEHRCS-NH2; disulfide 2-12) | 16 | < 100 | 77
CC[C@H](C)[C@@H]1NC(=O)[C@@H](NC(=O)CN(C)C(=O)[C@H](CCC(=O)O)NC(=O)[C@H](CO)NC(C)=O)CSSC[C@@H](C(=O)N[C@H](C(=O)N[C@@H](CCC(=O)O)C(=O)N[C@@H](C)C(N)=O)[C@@H](C)O)NC(=O)[C@H](CCCNC(=N)N)NC(=O)[C@H](Cc2c[nH]cn2)NC(=O)[C@H](CCC(=O)O)NC(=O)CNC(=O)[C@H](Cc2c[nH]c3ccccc23)NC(=O)[C@H](CC(=O)O)NC(=O)[C@H](CCC(N)=O)NC(=O)[C@H](Cc2cn(C)c3ccccc23)NC1=O [Compound 82] (Ac-SE[Sar]CI[Trp(1-Me)]QDWGEHRCTEA-NH2; disulfide 4-14) | 5.4 | < 100 | –
CC[C@H](C)[C@@H]1NC(=O)[C@@H](NC(=O)[C@H](Cc2ccccc2)NC(=O)[C@H](CCC(=O)O)NC(=O)[C@H](CO)NC(C)=O)CSSC[C@@H](C(=O)N(C)CC(=O)N[C@@H](CCC(=O)O)C(=O)NCC(=O)N[C@@H](C)C(=O)N[C@@H](CCCCNC(=O)COCCOCCNC(=O)CC[C@H](NC(=O)COCCOCCNC(=O)CNC(=O)CC[C@H](NC(=O)CCCCCCCCCCCCCCCCC(=O)O)C(=O)O)C(=O)O)C(N)=O)NC(=O)[C@H](CCCNC(=N)N)NC(=O)[C@H](Cc2c[nH]cn2)NC(=O)[C@H](CCC(=O)O)NC(=O)CNC(=O)[C@H](Cc2c[nH]c3ccccc23)NC(=O)[C@H](CCC(=O)O)NC(=O)[C@H](CCC(N)=O)NC(=O)[C@H](Cc2cn(C)c3ccccc23)NC1=O [Compound 120] (Ac-SEFCI[Trp(1-Me)]QEWGEHRC[Sar]EGAK([AEEA-γGlu-AEEA-Gly-γGlu-C18 diacid])-NH2; disulfide 4-14) | 28 | < 250 | –
CC[C@H](C)[C@@H]1NC(=O)[C@@H](NC(=O)[C@H](Cc2ccccc2)NC(=O)[C@H](CCC(=O)O)NC(=O)[C@H](CO)NC(C)=O)CSSC[C@@H](C(=O)N(C)CC(=O)N[C@@H](CCC(=O)O)C(=O)NCC(=O)N[C@@H](CCC(=O)O)C(=O)NCCOCCOCC(=O)NCCOCCOCC(=O)N[C@@H](CCCCNC(=O)CC[C@H](NC(=O)CNC(=O)CC[C@H](NC(=O)CCCCCCCCCCCCCCCCCCC(=O)O)C(=O)O)C(=O)O)C(N)=O)NC(=O)[C@H](CCCNC(=N)N)NC(=O)[C@H](Cc2c[nH]cn2)NC(=O)[C@H](CCC(=O)O)NC(=O)CNC(=O)[C@H](Cc2c[nH]c3ccccc23)NC(=O)[C@H](CC(=O)O)NC(=O)[C@H](CCC(N)=O)NC(=O)[C@H](Cc2cn(C)c3ccccc23)NC1=O [Compound 128] (Ac-SEFCI[Trp(1-Me)]QDWGEHRC[Sar]EGE[AEEA][AEEA]K([γGlu-Gly-γGlu-C20 diacid])-NH2; disulfide 4-14) | 6.5 | < 100 | –
CC[C@H](C)[C@@H]1NC(=O)[C@@H](NC(=O)[C@H](Cc2ccc(O)cc2)NC(=O)[C@H](CCC(=O)O)NC(=O)[C@H](CO)NC(C)=O)CSSC[C@@H](C(=O)N(C)CC(=O)N[C@@H](CCC(=O)O)C(=O)N[C@@H](CCCCN)C(=O)N[C@@H](CCC(=O)N[C@@H](C)C(=O)N[C@@H](CCCCNC(=O)COCCOCCNC(=O)CC[C@H](NC(=O)COCCOCCNC(=O)CNC(=O)CC[C@H](NC(=O)CCCCCCCCCCCCCCCCC(=O)O)C(=O)O)C(=O)O)C(N)=O)C(=O)O)NC(=O)[C@H](CCCNC(=N)N)NC(=O)[C@H](Cc2c[nH]cn2)NC(=O)[C@H](CCC(=O)O)NC(=O)CN(C)C(=O)[C@H](Cc2c[nH]c3ccccc23)NC(=O)[C@H](CCC(=O)O)NC(=O)[C@H](CCC(N)=O)NC(=O)[C@H](Cc2cn(C)c3ccccc23)NC1=O [Compound 121, Ac-SEYC(1)I[1-Me-Trp]QEW[Sar]EHRC(1)[Sar]K[γGlu]A-K([17-carboxy-heptadecanoyl][γGlu]G[Peg3][γGlu][Peg3])-NH2] (Ac-SEYCI[Trp(1-Me)]QEW[Sar]EHRC[Sar]EK[γGlu]AK([AEEA-γGlu-AEEA-Gly-γGlu-C18 diacid])-NH2; disulfide 4-14) | 30 | < 250 | –

Compounds with a lower Kd [1], results first:

Kd [1] [nM] | SMILES | IC50 [2, 3] [nM] | IC50 ([2]; Table 4, valine 3 versus isoleucine 3 pairs, read-out: CP hemolysis IC50) [nM]
0.12 | CC[C@H](C)[C@H](NC(=O)[C@H](N)Cc1ccc(O)cc1)C(=O)N[C@H]1CSSC[C@@H](C(=O)N(C)[C@H](C(N)=O)[C@@H](C)CC)NC(=O)[C@H](CCCNC(=N)N)NC(=O)[C@H](Cc2c[nH]cn2)NC(=O)[C@H](C)NC(=O)CN(C)C(=O)[C@H](Cc2c[nH]c3ccccc23)NC(=O)[C@H](CC(=O)O)NC(=O)[C@H](CCC(N)=O)NC(=O)[C@H](Cc2cn(C)c3ccccc23)NC(=O)[C@H]([C@@H](C)CC)NC1=O [Compound 48, H-{d}Y1C(1)I[1-Me-Trp]QDW[Sar]AHRC(1)[N-Me-Ile]-NH2] (H-[dY]ICI[Trp(1-Me)]QDW[Sar]AHRC[NMeI]-NH2; disulfide 3-13) | < 100 | –
1.5 | CC[C@H](C)[C@H](NC(C)=O)C(=O)N[C@H]1CSSC[C@@H](C(=O)N[C@H](C(N)=O)[C@@H](C)O)NC(=O)[C@H](CCCNC(=N)N)NC(=O)[C@H](Cc2c[nH]cn2)NC(=O)[C@H](CCC(=O)O)NC(=O)CNC(=O)[C@H](Cc2c[nH]c3ccccc23)NC(=O)[C@H](CC(=O)O)NC(=O)[C@H](CCC(N)=O)NC(=O)[C@H](Cc2cn(C)c3ccccc23)NC(=O)[C@H]([C@@H](C)CC)NC1=O [Compound 4] (Ac-ICI[Trp(1-Me)]QDWGEHRCT-NH2; disulfide 2-12) | < 100 | –
1.4 | CC[C@H](C)[C@@H]1NC(=O)[C@@H](NC(=O)[C@H](Cc2ccccc2)NC(=O)[C@H](CCC(=O)O)NC(=O)[C@H](CO)NC(C)=O)CSCC[C@@H](C(=O)N[C@H](C(=O)NCC(=O)N[C@@H](C)C(=O)N[C@@H](CCC(=O)O)C(=O)N[C@@H](CO)C(N)=O)[C@@H](C)O)NC(=O)[C@H](CCCNC(=N)N)NC(=O)[C@H](Cc2c[nH]cn2)NC(=O)[C@H](CCC(=O)O)NC(=O)CNC(=O)[C@H](Cc2c[nH]c3ccccc23)NC(=O)[C@H](CC(=O)O)NC(=O)[C@H](CCC(N)=O)NC(=O)[C@H](Cc2cn(C)c3ccccc23)NC1=O [Compound 151, Ac-SEFA(1)I[1-Me-Trp]QDWGEHRhC(1)TGAES-NH2] (Ac-SEFCI[Trp(1-Me)]QDWGEHR[Abu(4-yl)]TGAES-NH2; thioether 4-14) | < 100 | –
3.4 | CC[C@H](C)[C@@H]1NC(=O)[C@@H](NC(=O)[C@H](Cc2ccccc2)NC(=O)[C@H](CCC(=O)O)NC(C)=O)CSCC[C@@H](C(=O)N[C@@H](CCC(=O)O)C(=O)NCC(=O)N[C@@H](CCC(=O)O)C(=O)N[C@@H](CCCCNC(=O)CC[C@H](NC(=O)CNC(=O)CC[C@H](NC(=O)CCCCCCCCCCCCCCCCC(=O)O)C(=O)O)C(=O)O)C(N)=O)NC(=O)[C@H](CCCNC(=N)N)NC(=O)[C@H](Cc2c[nH]cn2)NC(=O)[C@H](CCC(=O)O)NC(=O)CNC(=O)[C@H](Cc2c[nH]c3ccccc23)NC(=O)[C@H](CC(=O)O)NC(=O)[C@H](CCC(N)=O)NC(=O)[C@H](Cc2cn(C)c3ccccc23)NC1=O [Compound 161, Ac-EFA(1)I[1-Me-Trp]QDWGEHRhC(1)EGE-K([17-carboxy-heptadecanoyl][γGlu]G[γGlu])-NH2] (Ac-EFCI[Trp(1-Me)]QDWGEHR[Abu(4-yl)]EGEK([γGlu-Gly-γGlu-C18 diacid])-NH2; thioether 3-13) | < 100 | –
1.5 | CC[C@H](C)[C@@H]1NC(=O)[C@@H](NC(=O)[C@H](Cc2ccccc2)NC(=O)[C@H](CCC(=O)O)NC(=O)[C@H](CO)NC(C)=O)CSSC[C@@H](C(=O)N(C)CC(=O)N[C@@H](CCC(=O)O)C(=O)NCCOCCOCC(=O)NCCOCCOCC(=O)N[C@@H](CCCCNC(=O)CC[C@H](NC(=O)CNC(=O)CC[C@H](NC(=O)CCCCCCCCCCCCCCCCC(=O)O)C(=O)O)C(=O)O)C(N)=O)NC(=O)[C@H](CCCNC(=N)N)NC(=O)[C@H](Cc2c[nH]cn2)NC(=O)[C@H](CCC(=O)O)NC(=O)CN(C)C(=O)[C@H](Cc2c[nH]c3ccccc23)NC(=O)[C@H](CC(=O)O)NC(=O)[C@H](CCC(N)=O)NC(=O)[C@H](Cc2cn(C)c3ccccc23)NC1=O [Compound 144, Ac-SEFC(1)I[1-Me-Trp]QDW[Sar]EHRC(1)[Sar]E[Peg3][Peg3]-K([17-carboxy-heptadecanoyl][γGlu]G[γGlu])-NH2] (Ac-SEFCI[Trp(1-Me)]QDW[Sar]EHRC[Sar]E[AEEA][AEEA]K([γGlu-Gly-γGlu-C18 diacid])-NH2; disulfide 4-14) | < 100 | –
